Test results reported in PubChem BioAssay AID264 (DTP/NCI, 2004).
Values joined by “and” are separate entries in the source; they are usually repeats but may differ in a detail not shown here. Equal values may be shown once. Inconclusive results are not listed.

System: nude mice, LX-1 lung xenograft intrarenal, tumor weight T/C
Test: NCI In Vivo Anticancer Drug Screen. Data for tumor model Human Lung LX-1 Xenograft (intrarenal inoculation) in NU/NU Swiss (nude) mice
Settings: endpoint: mean tumor weight change, higher = larger tumour
Method: The antitumor activity of compounds was measured in mice bearing transplantable tumors. Survival or tumor size were measured and the results are expressed as the measurement made in the treated group (T) divided by the measurement made in the vehicle treated control group (C). The tumor model used in this assay is Human Lung LX-1 Xenograft (intrarenal inoculation) in NU/NU Swiss (nude) mice

[1] = dose: 400.0 mg/kg/injection, schedule: Q01DX010 (sc), vehicle: saline with Tween-80
[2] = dose: 300.0 mg/kg/injection, schedule: Q04DX003 (sc), vehicle: Klucel (hydroxypropylcellulose) (HPC)
[3] = dose: 600.0 mg/kg/injection, schedule: Q04DX003 (sc), vehicle: Klucel (hydroxypropylcellulose) (HPC)
[4] = dose: 1200.0 mg/kg/injection, schedule: Q04DX003 (sc), vehicle: Klucel (hydroxypropylcellulose) (HPC)
[5] = dose: 2400.0 mg/kg/injection, schedule: Q04DX003 (sc), vehicle: Klucel (hydroxypropylcellulose) (HPC)
[6] = dose: 50.0 mg/kg/injection, schedule: Q01DX010 (sc), vehicle: Klucel (hydroxypropylcellulose) (HPC)
[7] = dose: 600.0 mg/kg/injection, schedule: Q04DX003 (sc), vehicle: saline
[8] = dose: 150.0 mg/kg/injection, schedule: Q04DX003 (sc), vehicle: saline
[9] = dose: 18.75 mg/kg/injection, schedule: Q04DX003 (sc), vehicle: Klucel (hydroxypropylcellulose) (HPC)
[10] = dose: 37.5 mg/kg/injection, schedule: Q04DX003 (sc), vehicle: Klucel (hydroxypropylcellulose) (HPC)
[11] = dose: 50.0 mg/kg/injection, schedule: Q04DX003 (sc), vehicle: saline with Tween-80
[12] = dose: 100.0 mg/kg/injection, schedule: Q04DX003 (sc), vehicle: saline with Tween-80

`Clc1ccc(C(c2ccccc2Cl)C(Cl)Cl)cc1` (stereo not given) was tested, and the T/C [1] was 80 % of control, the T/C (dose: 800.0 mg/kg/injection, schedule: Q01DX010 (sc), vehicle: saline with Tween-80) was 40 % of control and the T/C (dose: 800.0 mg/kg/injection, schedule: Q01DX010 (sc), vehicle: saline) was 69 % of control. For the same compound, the T/C (dose: 1600.0 mg/kg/injection, schedule: Q01DX010 (sc), vehicle: saline with Tween-80) was 56 % of control, the T/C (dose: 1600.0 mg/kg/injection, schedule: Q01DX010 (sc), vehicle: saline) was 55 % of control and the T/C (dose: 3200.0 mg/kg/injection, schedule: Q01DX010 (sc), vehicle: saline with Tween-80) was 24 % of control. For the same compound, the T/C (dose: 3200.0 mg/kg/injection, schedule: Q01DX010 (sc), vehicle: saline) was 80 % of control and the T/C (dose: 6400.0 mg/kg/injection, schedule: Q01DX010 (sc), vehicle: saline) was 73 % of control.

With `NC(C(=O)O)c1ccc(CBr)cc1` (stereo not given) the T/C (dose: 300.0 mg/kg/injection, schedule: Q04DX003 (sc), vehicle: acid diluted with saline) was 96 % of control.

With `O=C(O)c1cc(Cc2ccc(O)c(C(=O)O)c2)ccc1O` (tested in a mixture with another compound) the T/C [2] was 89 % of control, the T/C [3] was 64 % of control and the T/C [4] was 91 % of control. The T/C [5] was 68 % of control.

With `O=C(CCCN1CCC(O)(c2cccc(C(F)(F)F)c2)CC1)c1ccc(F)cc1` the T/C (dose: 6.25 mg/kg/injection, schedule: Q01DX010 (sc), vehicle: Klucel (hydroxypropylcellulose) (HPC)) was 52 % of control, the T/C (dose: 12.5 mg/kg/injection, schedule: Q01DX010 (sc), vehicle: Klucel (hydroxypropylcellulose) (HPC)) was 96 % of control and the T/C (dose: 25.0 mg/kg/injection, schedule: Q01DX010 (sc), vehicle: Klucel (hydroxypropylcellulose) (HPC)) was 60 % of control. The T/C [6] was 45 % of control and 54 % of control.

`CC1(C)CC1(Br)Br` was tested, and the T/C (dose: 100.0 mg/kg/injection, schedule: Q01DX010 (sc), vehicle: saline with Tween-80) was 160 % of control, the T/C (dose: 200.0 mg/kg/injection, schedule: Q01DX010 (sc), vehicle: saline with Tween-80) was 76 % of control and 77 % of control and the T/C [1] was 58 % of control.

With `CCCCCC[C@@H](O)C/C=C\CCCCCCCC(=O)OCCO` the T/C (dose: 300.0 mg/kg/injection, schedule: Q04DX003 (sc), vehicle: saline) was 69 % of control, the T/C [7] was 90 % of control and the T/C (dose: 1200.0 mg/kg/injection, schedule: Q04DX003 (sc), vehicle: saline) was 28 % of control. The T/C (dose: 2400.0 mg/kg/injection, schedule: Q04DX003 (sc), vehicle: saline) was 50 % of control.

`Cc1ccc(S(=O)(=O)OCOS(=O)(=O)c2ccc(C)cc2)cc1` was tested, and the T/C [2] was 79 % of control, the T/C [3] was 95 % of control and the T/C [4] was 74 % of control. The T/C [5] was 100 % of control.

`COC1C(O)C(C)OC(OC2C(Oc3cccc4c(O)c5c(=O)oc6ccc(C)c7c(=O)oc(c34)c5c67)OC(C)C(O)C2O)C1O` (stereo not given) was tested, and the T/C [6] was 84 % of control, the T/C (dose: 100.0 mg/kg/injection, schedule: Q01DX010 (sc), vehicle: Klucel (hydroxypropylcellulose) (HPC)) was 63 % of control and the T/C (dose: 200.0 mg/kg/injection, schedule: Q01DX010 (sc), vehicle: Klucel (hydroxypropylcellulose) (HPC)) was 54 % of control. For the same compound, the T/C (dose: 400.0 mg/kg/injection, schedule: Q01DX010 (sc), vehicle: Klucel (hydroxypropylcellulose) (HPC)) was 58 % of control.

`[Cl][Sn]([c]1ccccc1)[c]1ccccc1` was tested, and the T/C [8] was 92 % of control and the T/C [7] was 84 % of control.

With `C=C1C(=O)C23[C@H](O)C1CC[C@H]2[C@]12COC3(O)[C@@H](O)[C@@H]1C(C)(C)CC[C@@H]2O` the T/C [9] was 105 % of control and the T/C [10] was 49 % of control.

In the case of `CCc1ccc(C2=C(O)C(=O)C(c3ccccc3)=C(O)C2=O)cc1`, the T/C [2] is reported as 104 % of control, the T/C [3] is reported as 49 % of control and the T/C [4] is reported as 36 % of control.

In the case of `COC1=C(OC)C(=O)C(Sc2ccc3ccccc3c2)=CC1=O`, the T/C (dose: 75.0 mg/kg/injection, schedule: Q04DX003 (sc), vehicle: saline with Tween-80) is reported as 85 % of control, the T/C (dose: 150.0 mg/kg/injection, schedule: Q04DX003 (sc), vehicle: saline with Tween-80) is reported as 93 % of control and the T/C (dose: 200.0 mg/kg/injection, schedule: Q04DX003 (sc), vehicle: saline with Tween-80) is reported as 115 % of control. For the same compound, the T/C (dose: 300.0 mg/kg/injection, schedule: Q04DX003 (sc), vehicle: saline with Tween-80) was 80 % of control, the T/C (dose: 400.0 mg/kg/injection, schedule: Q04DX003 (sc), vehicle: saline with Tween-80) was 104 % of control and the T/C (dose: 800.0 mg/kg/injection, schedule: Q04DX003 (sc), vehicle: saline with Tween-80) was 92 % of control. For the same compound, the T/C (dose: 1600.0 mg/kg/injection, schedule: Q04DX003 (sc), vehicle: saline with Tween-80) was 79 % of control.

In the case of `Ic1ncnc2c1ncn2C1CCCO1` (stereo not given), the T/C (dose: 200.0 mg/kg/injection, schedule: Q04DX003 (sc), vehicle: Klucel (hydroxypropylcellulose) (HPC)) is reported as 168 % of control, the T/C (dose: 800.0 mg/kg/injection, schedule: Q04DX003 (sc), vehicle: Klucel (hydroxypropylcellulose) (HPC)) is reported as 107 % of control and the T/C (dose: 1600.0 mg/kg/injection, schedule: Q04DX003 (sc), vehicle: Klucel (hydroxypropylcellulose) (HPC)) is reported as 41 % of control.

`CSc1ccc2c(c1)C(N1CCN(C)CC1)Cc1ccccc1S2` (stereo not given) was tested, and the T/C (dose: 25.0 mg/kg/injection, schedule: Q04DX003 (sc), vehicle: saline with Tween-80) was 152 % of control, the T/C [11] was 88 % of control and the T/C [12] was 171 % of control.

`OCCN1CCN(CC/C=C2/c3ccccc3Sc3ccc(C(F)(F)F)cc32)CC1` was tested, and the T/C (dose: 10.0 mg/kg/injection, schedule: Q01DX010 (sc), vehicle: saline) was 54 % of control, the T/C (dose: 20.0 mg/kg/injection, schedule: Q01DX010 (sc), vehicle: saline) was 45 % of control and the T/C (dose: 40.0 mg/kg/injection, schedule: Q01DX010 (sc), vehicle: saline) was 29 % of control.

`C[CH2][Pb]([CH2]C)([CH2]C)[O]C(=O)COc1ccccc1` was tested, and the T/C (dose: 9.0 mg/kg/injection, schedule: Q04DX003 (sc), vehicle: saline with Tween-80) was 47 % of control and the T/C (dose: 18.0 mg/kg/injection, schedule: Q04DX003 (sc), vehicle: saline with Tween-80) was 47 % of control.

With `CCCCC(=O)OCC(=O)[C@]1(O)Cc2c(O)c3c(c(O)c2[C@@H](OC2CC(NC(=O)C(F)(F)F)C(O)C(C)O2)C1)C(=O)c1c(OC)cccc1C3=O` (stereo not given in full) the T/C (dose: 32.0 mg/kg/injection, schedule: Q01DX010 (sc), vehicle: distilled water + Tween-80) was 84 % of control and the T/C (dose: 512.0 mg/kg/injection, schedule: Q01DX010 (sc), vehicle: distilled water + Tween-80) was 5 % of control and 8 % of control and 26 % of control.

`C=C1N(C)c2ccccc2C1(C)C` was tested, and the T/C [11] was 80 % of control and the T/C [12] was 76 % of control.

For `COc1cc([C@@H]2c3cc4c(cc3[C@@H](OC3OC5COC(C)OC5C(O)C3O)[C@H]3COC(=O)[C@H]23)OCO4)cc(OC)c1O` (stereo not given in full), the T/C (dose: 2.0 mg/kg/injection, schedule: Q01DX010 (sc), vehicle: saline) was 153 % of control, the T/C (dose: 4.0 mg/kg/injection, schedule: Q01DX010 (sc), vehicle: saline) was 80 % of control and the T/C (dose: 8.0 mg/kg/injection, schedule: Q01DX010 (sc), vehicle: saline) was 85 % of control. The T/C (dose: 16.0 mg/kg/injection, schedule: Q01DX010 (sc), vehicle: saline) was 31 % of control.

For `COc1cc(NCCCCCCCNC(C)C)c2nccc(C)c2c1`, the T/C (dose: 37.5 mg/kg/injection, schedule: Q04DX003 (sc), vehicle: saline) was 105 % of control and the T/C [8] was 87 % of control.

In the case of `O=C1OC(=O)[C@H]2[C@@H]1[C@H]1C=C[C@@H]2OC1=O`, the T/C (dose: 300.0 mg/kg/injection, schedule: Q04DX003 (sc), vehicle: suspension in saline) is reported as 90 % of control, the T/C (dose: 600.0 mg/kg/injection, schedule: Q04DX003 (sc), vehicle: suspension in saline) is reported as 104 % of control and the T/C (dose: 1200.0 mg/kg/injection, schedule: Q04DX003 (sc), vehicle: suspension in saline) is reported as 72 % of control.

With `C(C#CCN1CCOCC1)#CCN1CCOCC1` the T/C [2] was 124 % of control, the T/C [3] was 76 % of control and the T/C [4] was 84 % of control.

With `O=C(O)CC(=O)O.[NH-]CC[NH-].[Pt+2]` the T/C (dose: 12.5 mg/kg/injection, schedule: Q01DX010 (sc), vehicle: dextrose) was 100 % of control, the T/C (dose: 25.0 mg/kg/injection, schedule: Q01DX010 (sc), vehicle: dextrose) was 74 % of control and the T/C (dose: 50.0 mg/kg/injection, schedule: Q01DX010 (sc), vehicle: dextrose) was 74 % of control.

`CN(C)c1ccc2c(N(C)C)cc(N(C)C)nc2c1` was tested, and the T/C (dose: 9.38 mg/kg/injection, schedule: Q04DX003 (sc), vehicle: Klucel (hydroxypropylcellulose) (HPC)) was 102 % of control, the T/C [9] was 123 % of control and the T/C [10] was 96 % of control. The T/C (dose: 75.0 mg/kg/injection, schedule: Q04DX003 (sc), vehicle: Klucel (hydroxypropylcellulose) (HPC)) was 154 % of control.
